The text below walks through data of patent US20140221301A1, “COMBINATION TREATMENT FOR CANCER” (priority 2011, published 2014).

For this assay, the system named is myeloma cell lines. Kind of assay: Cell growth and viability, MTS assay, myeloma cell lines. It counts as cell-based. Particulars: 72 hours. The method, then: FIG. 1. […] (A) TEX and (B) M9-ENL1 cells were plated in 96-well plates and drugs were added to the wells (5 μL per well) for final concentrations of 10 μM (shown) and 1 μM. Cell growth and viability was measured at 48 hours (M9-ENL-1) and 72 hours (TEX) by MTS assay. Cell viability is shown for each compound as a percent of cells treated with DMSO alone. (C) Leukemia, (D) myeloma, and (E) solid tumor cell lines were seeded in 96-well plates and then treated with increasing concentrations of tigecycline. Cell growth and viability was measured at 72 hours by MTS assay. Cell viability is expressed as mean percentage plus or minus SD (n=3) relative to vehicle-treated cells. […] Cell viability was measured at 72 hours by MTS assay. Cell viability is expressed as mean percentage plus or minus SD (n=3) relative to vehicle-treated cells.
Human leukemia (OCI-AML2, HL60, U937) cell lines were maintained in RPMI 1640 medium. Myeloma (LP-1, KMS11, 8226, JJN3, OP-M2) cell lines were maintained in Iscove's media. […]
Cell growth and viability was assessed by the MTS assay (Promega, Madison, Wis.) according to the manufacturer's instructions. Apoptosis and cell death was measured by Annexin V-fluroscein isothiocyanate (FITC; Biovision Research Products, Mountain View, Calif.), propidium iodide staining and flow cytometry according to the manufacturer's instructions and as previously described^30.
For orientation: Tetrazolium assays rely on reduction of a dye to a coloured formazan, in cell work by metabolically active cells.

One may read the IC50 as the concentration that gives 50% inhibition. Higher therefore signals lower potency. Take `CN(C)c1cc(NC(=O)CNC(C)(C)C)c(O)c2c1C[C@H]1C[C@H]3[C@H](N(C)C)C(O)=C(C(N)=O)C(=O)[C@@]3(O)C(O)=C1C2=O` [tigecycline]: the IC50 is above 10 µM.
